We go through 1 molecule from patent publication US10857230B2, “Co-therapy comprising a small molecule CSF-1R inhibitor and an agonistic antibody that specifically binds CD40 for the treatment of cancer” (Janssen Biotech, Inc., priority 2017, dated 2020).

The assay has as its system CT26 murine colon carcinoma cells. The assay can be described thus: Mean Tumor Volume Assay, CT26 (Example 3). The assay is classed as in vivo, BALB/c mice. Particulars: anti-mCD40 5 mpk, anti-CSF1R 10 mpk i.p. Days 1, 5, 9, 13. The method, then: The assay was run using female BALB/c mice (BALB/c AnNcr1, Charles River).
CT26 murine colon carcinoma cells were grown in RPMI-1640 medium containing 10% fetal bovine serum, 2 mM glutamine, 100 units/mL penicillin G sodium, 100 μg/mL streptomycin sulfate, and 25 μg/mL gentamicin. The cells were cultured in tissue culture flasks in a humidified incubator at 37° C., in an atmosphere of 5% CO2 and 95% air.
The CT26 colon cells used for implantation were harvested during log phase growth and re-suspended in cold phosphate buffered saline (PBS).
Each mouse was injected subcutaneously in the right flank with 1×10^6 tumor cells (0.1 mL cell suspension) and tumors were monitored as their volumes approached the target range of 75 to 125 mm^3. Day 1 of the study, animals with individual tumor volumes ranging from 75 to 125 mm^3 were randomized into six different groups (n=12).
The compound of formula of formula (I), rat IgG2a (Clone 2A3) (5.55 mg/mL), anti-CSF1R (purchased from BioXCell anti-mouse CSF1R (CD115), Clone: AFS98, SKU: BE0213, Lot No. 5248/0814) and anti-mCD40 (purchased from BioXCell, anti-mouse CD40, Clone: FGK45, SKU: 13E0016-2-) were used as test compounds, alone or in combination. The compound of formula (I) was stored at room temperature and antibody stock solutions were stored at 4° C. upon receipt. The compound of formula (I) was dissolved in 0.5% HPMC to yield a 1.0 mg/mL dosing solution. The dosing solution was stored at 4° C., protected from light. The rat IgG2a isotype, anti-CD40 and anti-CSF1R dosing solutions were prepared once at the beginning of study by diluting aliquots of the stock solutions with PBS. The dosing solution was stored at 4° C., protected from light.
On Day 1 of the study, groups of BALB/c mice (n=12/group) began dosing according to the following protocol
The vehicle (0.5% HPMC) and compound of formula (I) were administered orally (p.o.). The rat IgG2a isotype control, anti-mCD40 and anti-CSF1R were administered intraperitoneally (i.p.). Rat IgG2a(2A3), the anti-CSF1R and compound of formula (I) were administered at 10 mg/kg. The anti-mCD40 was administered at 5 mg/kg. The dosing volume for all animals was 10 mL/kg (0.2 mL per 20-g mouse) and was adjusted for body weight.

Turning to `CC1(C)CC=C(c2nc(C3CC(C)(C)OC(C)(C)C3)ccc2NC(=O)c2nc(C#N)c[nH]2)CC1` [compound of formula (I), 4-cyano-N-(2-(4,4-dimethylcyclohex-1-en-1-yl)-6-(2,2,6,6-tetramethyltetrahydro-2H-pyran-4-yl)pyridin-3-yl)-1H-imidazole-2-carboxamide], the “Group Mean Tumor Volume, Day 6” value (Day 6, formula (I) 10 mpk b.i.d. × 14 days p.o.) was 107.69 mm^3. Also, the “% Tumor Growth Inhibition, Day 6” value (Day 6, relative to Group 1 control, formula (I) 10 mpk b.i.d. × 14 days p.o.) is on record as −0.86%. The “Group Mean Tumor Volume, Day 8” value (Day 8, formula (I) 10 mpk b.i.d. × 14 days p.o.) was 130.14 mm^3. In addition, where the note is “Day 8, relative to Group 1 control, formula (I) 10 mpk b.i.d. × 14 days p.o.”, the “% Tumor Growth Inhibition, Day 8” value is −6.79%. The “Group Mean Tumor Volume, Day 10” value (Day 10, formula (I) 10 mpk b.i.d. × 14 days p.o.) stood at 196.09 mm^3. Moreover, the “% Tumor Growth Inhibition, Day 10” value (Day 10, relative to Group 1 control, formula (I) 10 mpk b.i.d. × 14 days p.o.) is given as −24.44%. Moreover, the “Group Mean Tumor Volume, Day 13” value (Day 13, formula (I) 10 mpk b.i.d. × 14 days p.o.) was determined as 268.17 mm^3. Besides, the “% Tumor Growth Inhibition, Day 13” value (Day 13, relative to Group 1 control, formula (I) 10 mpk b.i.d. × 14 days p.o.) is −1.27%. For the same molecule, the “Group Mean Tumor Volume, Day 15” value (Day 15, formula (I) 10 mpk b.i.d. × 14 days p.o.) worked out at 392.41 mm^3. The “% Tumor Growth Inhibition, Day 15” value (Day 15, relative to Group 1 control, formula (I) 10 mpk b.i.d. × 14 days p.o.) was 5.39%. Moreover, the “Group Mean Tumor Volume, Day 16” value (Day 16, formula (I) 10 mpk b.i.d. × 14 days p.o.) amounted to 412.91 mm^3. Besides, the “% Tumor Growth Inhibition, Day 16” value (Day 16, relative to Group 1 control, formula (I) 10 mpk b.i.d. × 14 days p.o.) is −2.37%. In addition, the “Group Mean Tumor Volume, Day 20” value (Day 20, formula (I) 10 mpk b.i.d. × 14 days p.o.) is given as 739.49 mm^3. Also, the “% Tumor Growth Inhibition, Day 20” value (Day 20, relative to Group 1 control, formula (I) 10 mpk b.i.d. × 14 days p.o.) was 16.42%.
